In US10435361B2, “Kinase inhibitors” (Topivert Pharma Limited, priority 2013, dated 2019):
Where two headings read alike, the source gives them in different places.

Key:
[1] = tested on: PBMCs; test: Cell mitosis assay in PBMCs; format: cell-based; conditions: Homo sapiens, PBMC, 5 μg/mL
Method in brief: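 Human PBMCs from healthy donors, density-gradient isolated, stimulated with 2% PHA 48 h, then exposed 20 h to test compounds; demecolcine 0.1 μg/mL added 2 h before harvest. Fixed/permeabilised cells stained for phospho-histone H3 and propidium iodide; mitotic lymphocytes counted by flow cytometry.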

[2] = tested on: PBMCs; test: IL-2 and IFN gamma release in CD3/CD28 stimulated PBMC cells; format: cell-based; conditions: Homo sapiens, assay (c)
Method in brief: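 Healthy-donor PBMCs, density-gradient isolated, stimulated on plates pre-coated with anti-CD3 (0.3 μg/mL) and anti-CD28 (3 μg/mL) antibodies, with compound, for 3 days under standard culture conditions. IC50 derived from the dose-response curve.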

[3] = tested on: HT29 cells; test: IL-1β-induced IL-8 release in HT29 cells; format: cell-based; conditions: Homo sapiens, HT-29, assay (d), read-out: IC50 Values for Inhibition of Cytokine Release HT29 cells IL-8
Description: HT29 cells, a human colon adenocarcinoma cell line, are plated in a 96 well plate (24 hr) and pre-treated with compounds at the desired concentration for 2 hours before addition of 5 ng/mL of IL-1β (Abcam) for 24 hours. Supernatants are harvested for IL-8 quantification by Sandwich ELISA (Duo-set, R&D System). The IC50 is determined from the dose response curve.

[4] = tested on: PBMCs; test: LPS-induced TNFα/IL-8 release in PBMC cells; format: cell-based; conditions: Homo sapiens, assay (b), read-out: IC50 Values for Inhibition of Cytokine Release PBMCs IL-8
Method in brief: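 Healthy-donor PBMCs isolated by density gradient were pretreated with compound for 2 h, then stimulated with 1 ng/mL LPS (E. coli 0111:B4) for 24 h at 37° C., 5% CO2. IL-8 and TNFα in supernatants measured by sandwich ELISA.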

[5] = tested on: d-U937 cells; test: LPS-induced TNFα/IL-8 release in d-U937 cells; format: cell-based; conditions: Homo sapiens, dU937, assay (aa)
Description: U937 cells, a human monocytic cell line, are differentiated to macrophage-type cells by incubation with phorbol myristate acetate (PMA; 100 ng/mL) for 48 to 72 hr. Cells are pre-incubated with final concentrations of test compound for 2 hr and are then stimulated with 0.1 μg/mL of LPS (from E. Coli: 0111:B4, Sigma) for 4 hr. The supernatant is collected for determination of TNFα and IL-8 concentrations by sandwich ELISA (Duo-set, R&D systems). […] The relative 50% effective concentration (REC50) is determined from the resultant concentration-response curve. The inhibition of IL-8 production is calculated at each concentration of test compound by comparison with vehicle control.

[6] = Hydrolytic stability study (DMSO/water 3:1, 60° C.); format: physicochemical
Description: Chemical stability of compounds of the invention was assessed in a mixture of DMSO and water (3:1) at a test compound concentration of 1 mg/mL
Agilent, Waters X-Select C18, 2.5 μm, 4.6×30 mm column, 4 min method, 5-95%
MeCN/water (0.1% formic acid).
Column Oven Temperature 40° C.
Sample Preparation • A 1.0 mg sample of test compound was dissolved in 750 μL of DMSO. Water (250 μL) was added slowly, ensuring no precipitation occurred.
Recording Stability • A 50 μL aliquot of the test solution was removed and analysed in duplicate by 5 μL HPLC injections. The peak area for the test compound was recorded following manual integration of the corresponding UV trace. • The test solution was heated to 60° C., with stirring, and 50 μL aliquots removed for HPLC analysis at 5 and 24 h timepoints.

[7] = read-out: IC50 Values for Inhibition of Cytokine Release PBMCs IFNγ
[8] = read-out: IC50 Values for Inhibition of Cytokine Release PBMCs IL-2
[9] = method: relative to 10 μg/mL BIRB796 (REC50), read-out: IC50 Values for Inhibition of Cytokine Release dU937 cells TNFα
[10] = read-out: IC50 Values for Inhibition of Cytokine Release dU937 cells IL-8

Structure (SMILES) | inhibition at 5 µg/mL [1] [%] | IC50 [2, 7] [nM] | IC50 [2, 8] [nM] | IC50 [3] [nM] | IC50 [4] [nM] | IC50 [5, 9] [nM] | IC50 [5, 10] [nM] | decomposition in hydrolytic stability study ([6]; 1 mg/mL in DMSO:water (3:1), 60° C., 5 and 24 h) | % Parent Remaining ([6]; DMSO/water 3:1, 0 min) [%] | % Parent Remaining ([6]; DMSO/water 3:1, 60° C., 300 min) [%] | % Parent Remaining ([6]; DMSO/water 3:1, 60° C., 1440 min) [%]
COc1cc(Nc2nccc(Oc3ccc(NC(=O)Nc4cc(C(C)(C)C)cc(NS(C)(=O)=O)c4OC)c4ccccc34)n2)cc(S(=O)(=O)C2CC2)c1 [Example 5, N-(5-(tert-Butyl)-3-(3-(4-((2-((3-(cyclopropylsulfonyl)-5-methoxyphenyl)amino)pyrimidin-4-yl)oxy)naphthalen-1-yl)ureido)-2-methoxyphenyl)methanesulfonamide] | 44.9 | 10.3 | 151 | 6.8 | 2.4 | 0.5 | 1.4 |  |  |  | 
COCCOCCOCCOc1cc(Nc2nccc(Oc3ccc(NC(=O)Nc4cc(C(C)(C)C)cc(NS(C)(=O)=O)c4OC)c(Cl)c3Cl)n2)cc(OC)c1 [Example 10, N-(5-(tert-Butyl)-3-(3-(2,3-dichloro-4-((2-((3-methoxy-5-(2-(2-(2-methoxyethoxy)ethoxy)-ethoxy)phenyl)amino)pyrimidin-4-yl)oxy)phenyl)ureido)-2-methoxyphenyl)-methanesulfonamide] | 70.2 | 4.4 | 9 | 4.6 | 2.3 | 0.3 | 0.8 |  |  |  | 
COCCOCCOCCOc1cc(Nc2cc(Oc3ccc(NC(=O)Nc4cc(C(C)(C)C)cc(NS(C)(=O)=O)c4OC)c4ccccc34)ccn2)cc(OC)c1 [Example 11, N-(5-(tert-Butyl)-2-methoxy-3-(3-(4-((2-((3-methoxy-5-(2-(2-(2-methoxyethoxy)ethoxy)-ethoxy)phenyl)amino)pyridin-4-yl)oxy)naphthalen-1-yl)ureido)phenyl)-methanesulfonamide] | 33.5 | 17.7 | 73.6 | 9.3 | 2.6 | 1.2 | 1.4 |  |  |  | 
COCCOCCOCCOCCOCCOCCOCCOc1cc(Nc2nccc(Oc3ccc(NC(=O)Nc4cc(C(C)(C)C)cc(NS(C)(=O)=O)c4OC)c4ccccc34)n2)cc(OC)c1 [Example 14, N-(3-(3-(4-((2-((3-(2,5,8,11,14,17,20-Heptaoxadocosan-22-yloxy)-5-methoxyphenyl)amino)-pyrimidin-4-yl)oxy)naphthalen-1-yl)ureido)-5-(tert-butyl)-2-methoxyphenyl)-methanesulfonamide] | 49.8 | 19.7 | 182 | 3 | 1.7 | 0.5 | 0.6 |  |  |  | 
COCCOCCOCCOc1cc(Nc2nccc(Oc3ccc(NC(=O)Nc4cc(C(C)(C)C)cc(NS(C)(=O)=O)c4OC)c4ccccc34)n2)cc(OC(F)F)c1 [Example 17, N-(5-(tert-Butyl)-3-(3-(4-((2-((3-(difluoromethoxy)-5-(2-(2-(2-methoxyethoxy)ethoxy)-ethoxy)phenyl)amino)pyrimidin-4-yl)oxy)naphthalen-1-yl)ureido)-2-methoxyphenyl)-methanesulfonamide] | 37 | 8.2 | 65.6 | 5.1 | 1.8 |  | 1.4 |  |  |  | 
C#Cc1cc(Nc2cc(Oc3ccc(NC(=O)Nc4cc(C(C)(C)C)cc(NS(C)(=O)=O)c4OC)c4ccccc34)ccn2)cc(C(=O)NCCOCCOC)c1 [Example 52, 3-((4-((4-(3-(5-(tert-Butyl)-2-methoxy-3-(methylsulfonamido)phenyl)ureido)naphthalen-1-yl)oxy)pyridin-2-yl)amino)-5-ethynyl-N-(2-(2-methoxyethoxy)ethyl)benzamide] | 31 | 39 | 205 | 17.3 | 2.4 |  |  |  |  |  | 
C#Cc1cc(Nc2cc(Oc3ccc(NC(=O)Nc4cc(C(C)(C)C)cc(C(N)=O)c4OC)c4ccccc34)ccn2)cc(C(=O)NCCOCCOCCOC)c1 [Example 53, 3-((4-((4-(3-(5-(tert-Butyl)-3-carbamoyl-2-methoxyphenyl)ureido)naphthalen-1-yl)oxy)pyridin-2-yl)amino)-5-ethynyl-N-(2-(2-(2-methoxyethoxy)ethoxy)ethyl)benzamide] | 30.3 | 14.9 | 181 | 6.4 | 1.6 |  |  |  |  |  | 
COCCOCCOCCOc1cc(Nc2nccc(Oc3ccc(NC(=O)Nc4cc(C(C)(C)C)cc(S(N)(=O)=O)c4OC)c4ccccc34)n2)cc(OC)c1 [Example 55, 5-(tert-Butyl)-2-methoxy-3-(3-(4-((2-((3-methoxy-5-(2-(2-(2-methoxyethoxy)ethoxy)-ethoxy)phenyl)amino)pyrimidin-4-yl)oxy)naphthalen-1-yl)ureido)benzenesulfonamide] | 54.3 | 12 | 35.2 | 4.5 | 2.2 |  |  |  |  |  | 
C#Cc1cc(Nc2nccc(Oc3ccc(NC(=O)Nc4cc(C(C)(C)C)cc(NS(C)(=O)=O)c4OC)c4ccccc34)n2)cc(C(=O)N[C@H](C)CN2CCOCC2)c1 [Example 56, (R)-3-((4-((4-(3-(5-(tert-Butyl)-2-methoxy-3-(methylsulfonamido)phenyl)ureido)-naphthalen-1-yl)oxy)pyrimidin-2-yl)amino)-5-ethynyl-N-(1-morpholinopropan-2-yl)-benzamide] | 46.4 | 12.2 | 35.2 | 8.6 | 1.8 |  |  |  |  |  | 
C#Cc1cc(Nc2nccc(Oc3ccc(NC(=O)Nc4cc(C(C)(C)C)cc(NS(C)(=O)=O)c4OC)c4ccccc34)n2)cc(C(=O)N[C@@H](C)CN2CCOCC2)c1 [Example 57, (S)-3-((4-((4-(3-(5-(tert-butyl)-2-methoxy-3-(methylsulfonamido)phenyl)ureido)-naphthalen-1-yl)oxy)pyrimidin-2-yl)amino)-5-ethynyl-N-(1-morpholinopropan-2-yl)benzamide] | 42.1 | 74.5 | 140 | 21.2 | 3.6 |  |  |  |  |  | 
COCCOCCOCCOc1cc(Nc2nccc(Oc3ccc(NC(=O)Nc4cc(C(C)(C)C)cc(NS(C)(=O)=O)c4OC)c4ccccc34)n2)cc(OC)c1Cl [Example 58, N-(5-(tert-Butyl)-3-(3-(4-((2-((4-chloro-3-methoxy-5-(2-(2-(2-methoxyethoxy)ethoxy)ethoxy)-phenyl)amino)pyrimidin-4-yl)oxy)naphthalen-1-yl)ureido)-2-methoxyphenyl)-methanesulfonamide] | 41.7 | 17.1 | 137 | 10.6 | 2.6 |  |  |  |  |  | 
C#Cc1cc(Nc2cc(Oc3ccc(NC(=O)Nc4cc(NS(C)(=O)=O)cc(C(C)(C)C)c4)c4ccccc34)ccn2)cc(C(=O)NCCN2CCOCC2)c1 [Example 65, 3-((4-((4-(3-(3-(tert-Butyl)-5-(methylsulfonamido)phenyl)ureido)naphthalen-1-yl)oxy)-pyridin-2-yl)amino)-5-ethynyl-N-(2-morpholinoethyl)benzamide] | 51.1 | 34.4 | 131 | 145 | 4 |  |  |  |  |  | 
C#Cc1cc(Nc2nccc(Oc3ccc(NC(=O)Nc4cc(C(C)C)nn4-c4ccc(C)cc4)c4ccccc34)n2)cc(C(=O)NCCN2CCOCC2)c1 [Reference Compound B, 3-ethynyl-5-((4-((4-(3-(3-isopropyl-1-(p-tolyl)-1H-pyrazol-5-yl)ureido)naphthalen-1-yl)oxy)pyrimidin-2-yl)amino)-N-(2-morpholinoethyl)benzamide, reference compound] |  |  |  |  |  |  |  | underwent substantial decomposition | 100 | 82 | 36
